Here are results for 14 compounds from US20100063065A1 (Inpharmatica Limited, priority 2005, published 2010).

Broadly, the EC50 is the concentration needed to bring the measured effect to its halfway point.

For one test, the target named is T1, PPARδ (Homo sapiens, UniProt Q03181).
T1 construct: fused to amino acids 147-441 of PPARδ downstream of CMV promoter; expressed in transfected cells; host or cells: HEK293 cells, transiently transfected with pFACMV-PPARδ using Fugene
T1 sequence (Q03181 147-441): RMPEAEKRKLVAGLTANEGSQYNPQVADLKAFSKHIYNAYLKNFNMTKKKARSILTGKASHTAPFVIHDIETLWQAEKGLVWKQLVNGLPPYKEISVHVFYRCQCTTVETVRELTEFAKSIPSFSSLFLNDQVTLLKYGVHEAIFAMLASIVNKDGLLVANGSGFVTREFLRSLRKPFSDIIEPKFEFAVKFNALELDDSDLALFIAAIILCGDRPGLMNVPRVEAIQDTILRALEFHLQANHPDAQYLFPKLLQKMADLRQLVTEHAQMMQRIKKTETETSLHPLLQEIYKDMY
The experiment in a line: Transactivation assay (PPARδ GAL4 assay) in transiently transfected HEK293 cells. The class given is cell-based. The following applies: luciferase reporter, Table 1. A digest of the protocol: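 Luciferase luminescence after 24 h compound treatment (0-30 μM final, OptiMEM, 37° C./5% CO2) gave EC50 by sigmoidal fitting, with activity normalised to GW501516 as percent. Reporter system: transiently transfected HEK293 expressing GAL4 DNA-binding domain fused to human PPARδ aa 147-441, plus 5×GAL4-driven luciferase.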
On the technique in general: Reporter assays use an easily measured gene product as a stand-in for the process of interest.
For `CCc1cc(C(=O)c2ccc(-c3ccccc3)cc2)c(NC(=O)CSCC(=O)O)s1` [Example 36, {[3-(Biphenyl-4-carbonyl)-5-ethyl-thiophen-2-ylcarbamoyl]-methylsulfanyl}-acetic acid], the EC50 was < 100 nM. Same read-out and setting: to `CCc1cc(C(=O)c2ccc(OC)cc2)c(NC(=O)CSC(C)(C)C(=O)O)s1` [Example 5, 2-{[5-Ethyl-3-(4-methoxy-benzoyl)-thiophen-2-ylcarbamoyl]-methylsulfanyl}-2-methyl-propionic acid] belongs 100 to 1000 nM. In the case of `CCc1cc(C(=O)c2ccc(OC(F)(F)F)cc2)c(NC(=O)CSC(C)(C)C(=O)O)s1` [Example 2, 2-{[5-Ethyl-3-(4-trifluoromethoxy-benzoyl)-thiophen-2-ylcarbamoyl]-methylsulfanyl}-2-methyl-propionic acid], the EC50 was < 100 nM. On the same count and under the same terms, to `CCc1cc(C(=O)c2ccc(-c3ccc(F)cc3)cc2)c(NC(=O)CSCC(=O)O)s1` [Example 40, {[5-Ethyl-3-(4′-fluoro-biphenyl-4-carbonyl)-thiophen-2-ylcarbamoyl]-methylsulfanyl}-acetic acid] belongs < 100 nM.

Staying with this test, now noted: luciferase reporter, Table 2.
`CCc1cc(C(=O)c2ccc(OC(F)(F)F)cc2)c(NC(=O)CN(C)C(C)(C)C(=O)O)s1` [Example 196, 2-({[5-Ethyl-3-(4-trifluoromethoxy-benzoyl)-thiophen-2-ylcarbamoyl]-methyl}-methyl-amino)-2-methyl-propionic acid] had an EC50 of 1000 to 30000 nM. On the same count and under the same terms, the same measure for `CCc1cc(C(=O)c2ccc(OC(F)(F)F)cc2)c(NC(=O)CSC(C(=O)O)c2ccccc2)s1` (centres unmarked) [Example 128, {[5-Ethyl-3-(4-trifluoromethoxy-benzoyl)-thiophen-2-ylcarbamoyl]-methylsulfanyl}-phenyl-acetic acid]: 100 to 1000 nM. Turning to `CCc1cc(C(=O)c2ccc(OC(F)(F)F)c(Cl)c2)c(NC(=O)CSCC(=O)O)s1` [Example 142, {[3-(3-Chloro-4-trifluoromethoxy-benzoyl)-5-ethyl-thiophen-2-ylcarbamoyl]-methylsulfanyl}-acetic acid], the EC50 was < 100 nM. On the same count and under the same terms, to `CCc1cc(C(=O)c2ccc(OC(F)(F)F)c(F)c2)c(NC(=O)CSCC(=O)O)s1` [Example 131, {[5-Ethyl-3-(3-fluoro-4-trifluoromethoxy-benzoyl)-thiophen-2-ylcarbamoyl]-methylsulfanyl}-acetic acid] belongs < 100 nM; to `CCc1cc(C(=O)c2ccc(OC(F)(F)F)cc2)c(NC(=O)CN[C@@](C)(CC)C(=O)O)s1` [Example 192, (S)-2-({[5-Ethyl-3-(4-trifluoromethoxy-benzoyl)-thiophen-2-ylcarbamoyl]-methyl}-amino)-2-methyl-butyric acid], 100 to 1000 nM; to `CCc1cc(C(=O)c2ccc(OC(F)(F)F)cc2)c(NC(=O)CN2[C@@H](C(=O)O)CC[C@@H]2C)s1` (relative stereo) [Example 179, (2R*,5S*)-1-{[5-Ethyl-3-(4-trifluoromethoxy-benzoyl)-thiophen-2-ylcarbamoyl]-methyl}-5-methyl-pyrrolidine-2-carboxylic acid], < 100 nM. On the same count and under the same terms, the same measure for `CCc1cc(C(=O)c2ccc(OC(F)(F)F)cc2)c(NC(=O)CN2CCCCC2C(=O)O)s1` (centres unmarked) [Example 165, 1-{[5-Ethyl-3-(4-trifluoromethoxy-benzoyl)-thiophen-2-ylcarbamoyl]-methyl}-piperidine-2-carboxylic acid]: 100 to 1000 nM; for `CCc1cc(C(=O)c2ccc(OC(F)(F)F)c(Cl)c2)c(NC(=O)CN[C@H](C(=O)O)C(C)C)s1` [Example 169, (S)-2-({[3-(3-Chloro-4-trifluoromethoxy-benzoyl)-5-ethyl-thiophen-2-ylcarbamoyl]-methyl}-amino)-3-methyl-butyric acid]: 100 to 1000 nM. In turn, `CCc1cc(C(=O)c2ccc(OC(F)(F)F)cc2)c(NC(=O)CN2CC(C)CC2C(=O)O)s1` (mixture of isomers) [Example 180, 1-{[5-Ethyl-3-(4-trifluoromethoxy-benzoyl)-thiophen-2-ylcarbamoyl]-methyl}-4-methyl-pyrrolidine-2-carboxylic acid] displayed an EC50 of 100 to 1000 nM. For the compound `CCc1cc(C(=O)c2ccc(OC(F)(F)F)cc2)c(NC(=O)C(CC)N2CCC[C@@H]2C(=O)O)s1` (stereo partly drawn) [Example 120, (R)-1-{1-[5-Ethyl-3-(4-trifluoromethoxy-benzoyl)-thiophen-2-ylcarbamoyl]-propyl}-pyrrolidine-2-carboxylic acid], the EC50 is < 100 nM.
